{"source": "patent US9695219B2", "about": "“Polypeptide having antibacterial activity and angiogenesis-inducing activity and wound-healing drug containing said polypeptide” (priority 2009, dated 2017)", "assay": "Stability in human serum (HPLC)", "type": "in vitro ADME", "conditions": "37° C.", "procedure": "The stability of the polypeptides in serum was evaluated. In human serum (purchased from KAC Co., Ltd.), or in rat serum obtained by collecting blood from a rat, then leaving the collected blood to stand at room temperature followed by centrifugation, each of the peptides was dissolved so as to attain a final concentration of 500 μg/mL, and the obtained solutions were left to stand at 37° C. After leaving to stand for 3 min or 10 min, these solutions were subjected to HPLC chromatogram analysis to detect peaks of the decomposition products, and calculate the ratio of the concentration of the peptides which remained in the solutions relative to the starting concentration. In addition, the half-lives of the peptides in serum were also calculated.", "note": "Where a SMILES comes first, the peptide text is derived from it. [ ]: non-standard residue; d: D form."}
{"smiles": "CC[C@H](C)[C@H](NC(=O)[C@H](CC(C)C)NC(=O)[C@H](CCCCN)NC(=O)[C@@H](N)CC(C)C)C(=O)N[C@@H](Cc1ccccc1)C(=O)N[C@@H](CC(C)C)C(=O)N[C@@H](Cc1c[nH]cn1)C(=O)N[C@@H](CCCNC(=N)N)C(=O)N[C@@H](CC(C)C)C(=O)N[C@@H](CCCCN)C(=O)N[C@@H](CCCNC(=N)N)C(=O)N[C@@H](CCSC)C(=O)N[C@@H](CCCNC(=N)N)C(=O)N[C@@H](CCCCN)C(=O)N[C@@H](CCCNC(=N)N)C(=O)N[C@@H](CC(C)C)C(=O)N[C@H](CCCCN)C(=O)N[C@@H](CCCNC(=N)N)C(=O)N[C@@H](CCCCN)C(N)=O", "note": "[SR-08] (H-LKLIFLHRLKRMRKRL[dK]RK-NH2; N-terminus assumed)", "values": [{"measurement": "Ratio of peptide remaining relative to the starting concentration, human serum, 0 min", "setting": "500 μg/mL, 0 min", "result": 100}, {"measurement": "remaining at 0.05 h, 500 μg/mL", "setting": "human, human serum, 3 min, read-out: Ratio of peptide remaining relative to the starting concentration, human serum, 3 min", "result": 95, "unit": "%"}, {"measurement": "remaining at 10 min, 500 μg/mL", "setting": "human, human serum, 10 min, read-out: Ratio of peptide remaining relative to the starting concentration, human serum, 10 min", "result": 65.8, "unit": "%"}, {"measurement": "half-life", "setting": "human, serum, 500 μg/mL", "result": 16, "unit": "min"}]}
